Where two headings read alike, the source gives them in different places. Peptide text beside a SMILES is read from it.

Assay [1] addresses T1, bradykinin receptor of the B2 class (rabbit jugular vein) (Oryctolagus cuniculus, UniProt Q28642).
T1 construct: from tissue; host or cells: rabbit jugular vein
T1 sequence (Q28642 1-367): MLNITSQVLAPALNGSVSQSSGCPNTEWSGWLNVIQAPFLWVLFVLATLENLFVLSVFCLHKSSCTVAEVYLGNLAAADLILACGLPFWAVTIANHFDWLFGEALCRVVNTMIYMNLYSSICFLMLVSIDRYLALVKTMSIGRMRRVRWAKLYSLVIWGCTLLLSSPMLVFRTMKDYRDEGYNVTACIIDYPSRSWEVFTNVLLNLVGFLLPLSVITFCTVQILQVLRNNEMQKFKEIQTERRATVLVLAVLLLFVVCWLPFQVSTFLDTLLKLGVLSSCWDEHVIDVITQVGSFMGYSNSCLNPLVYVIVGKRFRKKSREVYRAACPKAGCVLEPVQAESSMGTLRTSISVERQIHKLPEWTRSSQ
Description: Rabbit jugular vein (RJV) in vitro, antagonism of bradykinin. The settings on record: for RJV % REC: recovery after wash. As to the method: Thus in vitro studies were performed on standard assay systems, namely, guinea-pig ileum (GPI), rat uterus (RU) and rabbit jugular vein (RJV). […] The potency of each compound was assessed as a pA2 value according to the method of Arunlakshana & Schild, Br. J. Pharmacol. Chemother., 14:48-58 (1959). The PA2 can be defined as the negative logarithm of the molar concentration of the antagonist in the presence of which the potency of the agonist is reduced two-fold, i.e. twice the amount of agonist is required to produce a given response in the presence of, than in the absence of, the antagonist. A high potency of antagonism is indicated by a high PA2 value, i.e., a low concentration of antagonist is effective.
The percentage recovery (% Rec) was also determined for compounds with respect to each assay. Percentage recovery is a measure of the duration of action, the lower the percentage recovery value, the greater the duration of action of the compound.

The target of assay [2] is T2, bradykinin receptor of the B2 class (rat uterus) (Rattus norvegicus, UniProt P25023).
T2 construct: concentration effect curves to bradykinin (BK) on rat uterus in vitro; from tissue; host or cells: rat uterus
T2 sequence (P25023 1-396): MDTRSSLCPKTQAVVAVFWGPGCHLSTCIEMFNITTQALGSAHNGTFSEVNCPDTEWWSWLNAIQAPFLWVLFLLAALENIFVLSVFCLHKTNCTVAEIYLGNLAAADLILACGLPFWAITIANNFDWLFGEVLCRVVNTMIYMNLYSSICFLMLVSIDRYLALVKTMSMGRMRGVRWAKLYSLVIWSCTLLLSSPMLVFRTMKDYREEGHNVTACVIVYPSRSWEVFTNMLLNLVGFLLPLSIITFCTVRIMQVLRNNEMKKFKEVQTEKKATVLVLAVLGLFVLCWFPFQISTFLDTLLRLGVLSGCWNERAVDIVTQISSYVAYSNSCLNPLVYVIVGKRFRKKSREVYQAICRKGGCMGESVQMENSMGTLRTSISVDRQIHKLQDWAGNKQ
The assay is described as follows: Rat uterus (RU) in vitro, antagonism of bradykinin. The settings on record: for RU % REC: recovery after wash. In a few lines:
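Isolated rat uterus; bradykinin antagonism expressed as pA2, the negative log molar antagonist concentration that halves agonist potency. After the highest antagonist concentration, tissues were washed extensively and percent recovery was recorded.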

Assay [3] deals with T3, bradykinin receptor of the B2 class (guinea-pig ileum) (Cavia porcellus, UniProt O70526).
T3 sequence (O70526 1-372): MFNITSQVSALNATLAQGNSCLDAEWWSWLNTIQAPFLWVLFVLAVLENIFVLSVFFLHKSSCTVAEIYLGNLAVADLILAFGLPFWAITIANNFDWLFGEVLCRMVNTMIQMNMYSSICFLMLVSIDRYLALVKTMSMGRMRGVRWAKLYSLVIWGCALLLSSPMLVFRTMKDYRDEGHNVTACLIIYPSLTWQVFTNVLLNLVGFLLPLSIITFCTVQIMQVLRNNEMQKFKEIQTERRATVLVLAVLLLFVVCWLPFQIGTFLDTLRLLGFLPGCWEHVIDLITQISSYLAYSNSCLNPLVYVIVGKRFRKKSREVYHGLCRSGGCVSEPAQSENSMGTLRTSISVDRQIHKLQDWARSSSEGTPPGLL

The target in assay [4] is T3, bradykinin receptor of the B2 class (guinea-pig ileum). The note with it: for GPI % REC: recovery after wash, lower = longer duration.
In assay [5] the test system is bradykinin-induced hypotension. The assay is described as follows: Bradykinin-induced hypotension in the anesthetized rat. The settings on record: intravenous infusion 25 μg kg^-1 min^-1; bradykinin 4×10^-9 moles; FIG. 3. Type of assay: in vivo.
In assay [6] the test system is bradykinin-induced vascular permeability. Description: Rabbit skin vascular permeability (Evans Blue, intradermal bradykinin). The assay is classed as in vivo. As to the method: In these experiments, two protocols were used. The first protocol used the classical assay in which bradykinin was injected intradermally either alone or in combination with the compound under investigation following intravenous administration of Evans Blue dye. Thirty minutes after intradermal injection of bradykinin with and without the compound, the animal was killed, its skin removed and the area of "blueing" (i.e., vascular permeability or edema) measured.
The second protocol involved pre-injecting the test compound either 15 or 30 minutes before injecting bradykinin in the same site. The results are shown in FIGS. 2B and 2C, respectively.

[7] abbreviates: Table A, read-out: RJV pA2 (converted).

For `CC(C)C[C@H](NC(=O)[C@@H](Cc1ccccc1)NC(=O)[C@H](CO)NC(=O)[C@H](Cc1ccccc1)NC(=O)CNC(=O)[C@@H]1C[C@@H](O)CN1C(=O)[C@@H]1CCCN1C(=O)[C@H](CCCNC(=N)N)NC(=O)[C@H](N)CCCNC(=N)N)C(=O)N[C@@H](CCCNC(=N)N)C(=O)O` [CP-0088, dARG^0 -Arg^1 -Pro^2 -Hyp^3 -Gly^4 -Phe^5 -Ser^6 -(d)Phe^7 -Leu^8 -Arg^9, reference compound] (HELM PEPTIDE1{[dR].R.P.[Hyp].G.F.S.[dF].L.R}$$$$V2.0), the Kb in assay [1] (setting [7]) was 3.16 nM; in assay [2] (Table A, read-out: RU pA2 (converted)) it was 39.8 nM; in assay [3], 251 nM. For the same compound, in assay [1] (Table A), the “RJV % REC” value turned out to be 90%. Further, the “RU % REC” value in assay [2] (Table A) is given as 100%. In addition, the “% REC MONOMER” value in assay [2] (Table C, rat uterus) came to 100%. In assay [2] (Table C, rat uterus, P.A. = Partial Agonist), the “pA2 MONOMER” value worked out at 7.4. In addition, the “RAT UTERUS pA2” value in assay [2] (Table F) turned out to be 7.4. For the same compound, in assay [2] (Table F, rat uterus), the “% RECOVERY” value worked out at 100%. Besides, the “GPI % REC” value in assay [4] (Table A) was determined as 100%.
`CC(C)C[C@H](NC(=O)[C@@H](Cc1ccccc1)NC(=O)[C@H](CS)NC(=O)[C@H](Cc1ccccc1)NC(=O)CNC(=O)[C@@H]1C[C@@H](O)CN1C(=O)[C@@H]1CCCN1C(=O)[C@H](CCCNC(=N)N)NC(=O)[C@H](N)CCCNC(=N)N)C(=O)N[C@@H](CCCNC(=N)N)C(=O)O` [CP-0126] (HELM PEPTIDE1{[dR].R.P.[Hyp].G.F.C.[dF].L.R}$$$$V2.0): the Kb in assay [1] is 1.58 nM; in assay [3], 501 nM; in assay [3] (GPI pA2, Table A), 398 nM. Besides, the “RJV % REC” value in assay [1] (Table A) was 60%. In addition, in assay [5], the “Inhibition of hypotensive response to bradykinin” value is reported as “almost totally ineffective”. The “Recovery of bradykinin concentration effect curve after washing” value in assay [2] (rat uterus, after highest antagonist concentration, FIGS. 1A/1B) was “almost returns to that seen in the control”. Besides, in assay [4], the “GPI pA2” value was “≈ 6.3”. Further, the “Inhibition of bradykinin-induced vascular permeability, co-injected” value in assay [6] (intradermal, injected in combination with bradykinin, FIG. 2A) was “more potent than CP-0127”. Further, in assay [6] (pre-injected 15 or 30 minutes before bradykinin in the same site, FIGS. 2B/2C), the “Inhibition of bradykinin-induced vascular permeability, pre-injected” value is given as “significantly less effective”.
Turning to `CC(C)C[C@H](NC(=O)[C@@H](Cc1ccccc1)NC(=O)[C@H](CSC1CC(=O)N(CCCCCCN2C(=O)CC(SC[C@H](NC(=O)[C@H](Cc3ccccc3)NC(=O)CNC(=O)[C@@H]3C[C@@H](O)CN3C(=O)[C@@H]3CCCN3C(=O)[C@H](CCCNC(=N)N)NC(=O)[C@H](N)CCCNC(=N)N)C(=O)N[C@H](Cc3ccccc3)C(=O)N[C@@H](CC(C)C)C(=O)N[C@@H](CCCNC(=N)N)C(=O)O)C2=O)C1=O)NC(=O)[C@H](Cc1ccccc1)NC(=O)CNC(=O)[C@@H]1C[C@@H](O)CN1C(=O)[C@@H]1CCCN1C(=O)[C@H](CCCNC(=N)N)NC(=O)[C@H](N)CCCNC(=N)N)C(=O)N[C@@H](CCCNC(=N)N)C(=O)O` (some centres unmarked) [CP-0127] (HELM PEPTIDE1{[dR].R.P.[Hyp].G.F.C.[dF].L.R}|PEPTIDE2{[dR].R.P.[Hyp].G.F.C.[dF].L.R}|CHEM1{[O=C1CC([*:1])C(=O)N1CCCCCCN1C(=O)CC([*:2])C1=O]}$PEPTIDE1,CHEM1,7:R3-1:R1|PEPTIDE2,CHEM1,7:R3-1:R2$$$V2.0), the Kb in assay [1] (setting [7]) is 0.0316 nM. Also, the “RJV % REC” value in assay [1] (Table A) is 10%. Besides, the “RU % REC” value in assay [2] (Table A) was 50%. In assay [2] (Table C, rat uterus), the “% REC DIMER” value was 50% and the “pA2 DIMER” value was found to be 8.8. In assay [2] (Table D, 40 min), the “% REC (40 MIN)” value turned out to be 50%. Further, in assay [2] (Table D, effect of linker length), the “pA2 (UTERUS)” value is on record as 8.8. In assay [2] (Table E), the “RAT UTERUS % RECOVERED” value turned out to be 50% and the “RAT UTERUS pA2” value was found to be 8.8. In assay [2] (Table F, rat uterus), the “% RECOVERY” value was 50%. In assay [3] (pA2 GUINEA PIG ILEUM, Table B, Cys position scan, monomers and BMH dimers), this compound showed a Kb of around 20 nM. For the same compound, in assay [4] (Table A), the “GPI pA2” value was determined as 7.7 and the “GPI % REC” value is 100%.
